The text below walks through data of US7423015B1, “Antihelminthic drugs as a treatment for hyperproliferative diseases” (Board of Regents, The University of Texas System, priority 2001, dated 2008).

Series [1] has as its system H460 NSCLC cells. Briefly: Cell cycle profiles by FACS, MZ and vinorelbine. The format is cell-based, human. The method, then:
FIG. 10. MZ Enhances activity of anti-mictotic drugs in H460 NSCLC cells. H460 cells were treated with low dose of MZ or Vinorelbine. Cell cycle profiles indicating G1/S G2-Mphases were analyzed by FACS.
The doses of MZ and vinorelbine were chosen to be “sub-therapeutic”. […] Thus, in H460 NSCLC cells mebendazole enhances the activity of anti-mitotic drugs.

Series [2] concerns adenovirus expressed MDA-7. Briefly: Adenovirus expressed MDA-7 levels. The format is cell-based.
Series [3] relates to Ad-luciferase transgene expression. Briefly: Ad-luciferase transgene expression with or without MZ. It is filed as cell-based. Conditions: six cell lines, MZ at 50 ng/ml, 48 hours. The protocol:
FIG. 8. Expression of Ad-luciferase in H1299 cells with and without MZ. H1299 cells were treated with media (UT) or Ad-luciferase at increasing multiplicities of infection, with or without MZ at 50 ng/ml. Forty-eight hours later, cells were harvested and luciferase activity assayed.
FIG. 9. Expression of Ad-luciferase in A549 cells with and without MZ. A549 cells were plated in 6-well dishes and either treated with media (UT) or Ad-luciferase at increasing multiplicities of infection, with or without MZ at 50 ng/ml. Forty-eight hours later, cells were harvested and luciferase activity assayed.
Next, a series of six cell lines were transfected with Ad-luciferase at increasing multiplicities of infection, with or without MZ at 50 ng/ml.

The test system of series [4] is H460 human non-small cell lung cancer xenograft. The format is in vivo, athymic nu/nu mice. The protocol: Mice that had received 3.5 Gy of total body irradiation 1 day before inoculation were given injections into the shoulder of 2×10^6 tumor cells. Mice were then given MZ oral suspension (100 mg Vermox chewable tablet, Janssen Pharmaceutica, NJ, suspended in 10 ml PBS by sonication for 30 sec) with indicated concentration every other day, starting the day after 3-5 mm tumor established. Five mice were used in each group. Control and treated mice were then monitored for tumor growth; the tumors were measured externally in cross-sectional diameter every 7 days. Tumor volumes were calculated as previously described. Experiments were repeated three times.
The in vitro effect of MZ on proliferation of tumor cell lines prompted us to investigate its antitumor activity in an athymic nu/nu mouse model. Tumors were established by subcutaneous injection of H460 cells, a human non-small cell lung cancer (NSCLC) cell line ([…] cells/mouse) (FIG. 5B). […] Moreover, 10/10 animals inoculated with 1×10^6 cells developed tumors within 12 days. […] T0.2, T0.4 and T0.8 correspond to 0.2, 0.4 and 0.8 mg of MZ treatment groups (FIG. 5C). Animals with established tumors, 3-5 mm in diameter, received MZ every other day for 4 weeks, after which tumors were harvested, photographed, and weighed.

Series [5] deals with neovascularization induced by A549 cells. Briefly: Angiogenesis by tumor cells in vivo, dorsal air-sac method. Conditions: MZ oral suspension 1 mg/mouse/day, day 5. Set-up: species or system nude mouse. The method, then:
In vivo angiogenesis was assayed by the dorsal air-sac method (Bouvet et al., 1998). Briefly, 1×10^7 cultured A549 cells were suspended in PBS and packed into round cellulose ester membrane chambers with a diameter of 14 mm (pore size, 0.45 μm; Millipore, Bedford, Mass.). The chambers were then implanted into a dorsal air sac of a nude mouse. After the chamber implantation mice were fed with MZ oral suspension (1 mg/mouse/day). Five mice were used in each group. The mice were killed on day 5, and the subcutaneous region overlying the chamber in each mouse was photographed. The experiment was repeated two times with identical results.
In vivo angiogenesis was further assayed by the dorsal air-sac method (Tanaka et al., 1989). Subcutaneous neovascularization overlying a semipermeable membrane chamber containing […] cells. […] In order to exclude the possibility that the reduced vasculature was due to lack of viable tumor cells in the chamber, cells were prelabeled with fluorescent dye and injected into the chamber. After the blood vessels were photographed, the tumor cells on the membrane was examined under a fluorescence microscope.

Series [6] concerns human vascular endothelial cells (HUVEC). Briefly: In vitro proliferation assay with MZ, cell count. The format is cell-based. The note with it: 24 h treatment. The method, then: (§1) Cells of the human non-small cell lung cancer (NSCLC) cell line A549, WI-38 normal fibroblast (American Type Culture Collection, Rockville, Md.) and H460 (a gift from Drs. Adi Gazdar and John Minna. University of Texas Southwestern Medical Center, Dallas) were seeded on culture plates (2×10^4 cells/well) in F12 and RPMI medium, respectively, supplemented with 10% heat-inactivated fetal calf serum and antibiotics. HUVEC were grown in medium supplemented with growth factor (Clonetics, San Diego). The cells were then exposed to MZ dissolved in dimethyl sulfoxide (DMSO) when grown to 40-50% confluence. Cell growth was monitored by counting the cells using a hemocytometer.
(§2) Initially, the inventors examined the effect of MZ on proliferation of human lung cancer cell lines (H460 and A549) in vitro.

The subject of series [7] is human lung cancer cell lines (H460 and A549). Briefly: In vitro proliferation assay with MZ, cell count. It is filed as cell-based. Conditions: 24 h treatment, read-out: half maximal inhibitory concentration (IC50). The method, then:
as §1, §2

Series [8] relates to normal fibroblast. Briefly: In vitro proliferation assay with MZ, cell count. It is filed as cell-based, human. The note with it: 24 h treatment. The method, then:
as §1, §2

Series [9] concerns the target topoisomerase I (Homo sapiens, UniProt P11387). Briefly: Test for topoisomerase I poison effect. It is filed as biochemical. The source says: It has been shown recently that BZ are substrates for the P-glycoprotein transporter in multidrug-resistant tumor cells (Nare et al. 1994). It may be speculated that P-glycoprotein, which is overexpressed in several normal tissues and organs, could mediate the transport of BZ. Some terbenzimidazole compounds have been reported to be topoisomerase I poisons (Pilch et al., 1996).

Series [10] relates to H460 NSCLC cell lines resistant to taxol or vinorelbine. Briefly: Cell death of microtubule drug resistant cells. The format is cell-based, human. Conditions: MZ 0.5 μM, 48 h time point. The method, then: The inventors have developed H460 NSCLC cell lines that are resistant to the microtubule drugs: taxol (7 nM) or vinorelbine (9 nM). These cell lines show a marked cross resistance to each other. For example Taxol resistant cells show resistance to Vinorelbine mediated cell death. […] Thus, MZ can be effectively used for killing multi-drug resistant (MDR) cells in a clinical setting.

Structures are written as SMILES.

Chain of topoisomerase I (P11387 whole entry): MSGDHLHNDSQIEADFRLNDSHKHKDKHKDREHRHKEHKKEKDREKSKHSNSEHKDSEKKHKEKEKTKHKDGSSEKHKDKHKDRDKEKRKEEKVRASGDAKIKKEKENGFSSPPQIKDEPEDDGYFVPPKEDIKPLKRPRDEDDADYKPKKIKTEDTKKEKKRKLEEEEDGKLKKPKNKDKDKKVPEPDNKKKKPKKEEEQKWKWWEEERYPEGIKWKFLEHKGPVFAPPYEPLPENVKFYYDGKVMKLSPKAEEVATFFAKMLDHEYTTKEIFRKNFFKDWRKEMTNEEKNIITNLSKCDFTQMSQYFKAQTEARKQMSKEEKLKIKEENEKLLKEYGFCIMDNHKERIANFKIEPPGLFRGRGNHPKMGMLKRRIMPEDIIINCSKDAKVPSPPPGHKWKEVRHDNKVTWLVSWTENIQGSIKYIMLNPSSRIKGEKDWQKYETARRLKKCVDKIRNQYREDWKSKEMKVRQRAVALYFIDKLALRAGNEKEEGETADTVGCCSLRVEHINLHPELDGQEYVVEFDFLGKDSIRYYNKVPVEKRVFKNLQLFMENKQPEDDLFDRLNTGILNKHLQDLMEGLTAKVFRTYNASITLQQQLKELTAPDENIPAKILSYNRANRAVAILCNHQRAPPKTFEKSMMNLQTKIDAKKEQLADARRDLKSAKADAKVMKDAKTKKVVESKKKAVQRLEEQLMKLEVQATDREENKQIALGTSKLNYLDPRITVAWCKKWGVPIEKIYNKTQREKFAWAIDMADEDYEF

`COC(=O)Nc1nc2ccc(C(=O)c3ccccc3)cc2[nH]1` [Mebendazole, Methyl 5-benzoylbenzimidazole-2-carbamate]: the “apoptosis (sub-G0 cells) under combination of MZ and vinorelbine” value in [1] (24-48 hr cultures) is recorded as “pronounced apoptosis”. Further, the “interaction of MZ combined with Vinorelbine” value in series [1] (low doses of both drugs) is reported as “synergistic interaction”. Also, the apoptosis under monotherapy entry in series [1] (sub-therapeutic low dose) is reported as “No apoptosis”. In series [2], the “levels of adenovirus expressed MDA-7” value is given as “increased levels”. For the same compound, the transgene expression entry in series [3] was “significant increases”. In addition, in series [4] (0.2, 0.4 and 0.8 mg of MZ every other day), the “tumor growth, dose escalation” value is given as “suppressed the growth of the tumors in a dose-dependent manner”. Also, the “tumor weight versus control animals” value in series [4] (MZ every other day for 4 weeks) is reported as “marked difference”. Further, the tumor growth result in series [4] (established tumors (3 mm), 1 mg of MZ orally every other day) is given as “profoundly inhibit tumor growth”. Also, the “toxicity in treated mice” value in series [4] (mouse, in vivo) is “no signs of toxicity”. For the same compound, the “number and caliber of blood vessels” value in [5] is given as “significantly reduced”. Moreover, the “effect on growth of HUVEC” value in [6] was “no effect”. The IC50 in series [7] was roughly 120 nM. Moreover, the “effect on growth of normal fibroblast” value in series [8] was “no effect”. For the same compound, in series [9], the “topoisomerase I poison effect” value is listed as “could not detect any”. In addition, in series [10], the cell death was 40-70%.
